Tests used:
Nakaseomyces glabratus = experiment: Antifungal activity against Candida glabrata H05; assay type: functional
[1] = tested on: Human immunodeficiency virus; experiment: Antiviral activity against Human immunodeficiency virus; assay type: functional, organism-based; details: Human immunodeficiency virus 1
Pichia kudriavzevii = experiment: Antifungal activity against Pichia kudriavzevii G03; assay type: functional
[2] = tested on: Human immunodeficiency virus; experiment: Antiviral activity against Human immunodeficiency virus assessed as protection against virus-induced cytopathogenicity; assay type: functional; set-up: concentration or dose not given beside the values
Candida albicans [3] = experiment: Antifungal activity against Candida albicans ATCC 10231; assay type: functional
Candida albicans [4] = experiment: Antifungal activity against Candida albicans; assay type: functional
Escherichia coli = experiment: Antibacterial activity against Escherichia coli 2231; assay type: functional
Aspergillus fumigatus = experiment: Antifungal activity against Aspergillus fumigatus; assay type: functional
Staphylococcus aureus = experiment: Antibacterial activity against Staphylococcus aureus 209P; assay type: functional

Row | Compound | inhibition zone (IZ) (Nakaseomyces glabratus) | IC50 [1] | inhibition zone (IZ) (Pichia kudriavzevii) | Activity [2] | inhibition zone (IZ) (Candida albicans [3]) | inhibition zone (IZ) (Candida albicans [4]) | inhibition zone (IZ) (Escherichia coli) | inhibition zone (IZ) (Aspergillus fumigatus) | inhibition zone (IZ) (Staphylococcus aureus)
1 | Cc1cc(C2=CC(c3cccc([N+](=O)[O-])c3)N(C(=O)c3ccncc3)N2)ccc1O (stereo not given) | <5 mm | > 11 µM | <5 mm | 40% | <5 mm | <5 mm | >15 mm | >15 mm | >15 mm
2 | COc1cc(C2C=C(c3ccc(O)c(C)c3)NN2C(=O)c2ccncc2)cc(OC)c1OC (stereo not given) | <5 mm | > 66 µM | <5 mm | 26% | <5 mm | 5 mm | 5 mm | 5 mm | 5 mm
3 | Cc1cc(C2=CC(c3c(Cl)cccc3Cl)N(C(=O)c3ccncc3)N2)ccc1O (stereo not given) | 10 mm | > 14 µM | 5 mm | 24% | >15 mm | >15 mm | >15 mm | >15 mm | >15 mm
4 | Cc1cc(C2=CC(c3ccccc3)N(C(=O)c3ccncc3)N2)ccc1O (stereo not given) | <5 mm | > 11 µM | <5 mm | 13% | <5 mm | <5 mm | 5 mm | 5 mm | 5 mm
5 | Cc1ccnc2c1NC(=O)c1cccnc1N2C1CC1 [NEVIRAPINE] |  | 0.1 µM |  | 98% |  |  |  |  | 
6 | Cc1cc(C2=CC(c3ccc(N(C)C)cc3)N(C(=O)c3ccncc3)N2)ccc1O (stereo not given) | 10 mm | 6 µM | 5 mm | 102% | 10 mm | >15 mm | >15 mm | >15 mm | >15 mm
7 | Cc1cc(C2=CC(c3ccccc3Cl)N(C(=O)c3ccncc3)N2)ccc1O (stereo not given) | <5 mm | > 53 µM | <5 mm | 24% | <5 mm | <5 mm | >15 mm | >15 mm | >15 mm
8 | OC(Cn1cncn1)(Cn1cncn1)c1ccc(F)cc1F [FLUCONAZOLE] | >15 mm |  | >15 mm |  | >15 mm | >15 mm | <5 mm | >15 mm | <5 mm
9 | Cc1cc(C2=CC(c3ccc(Cl)cc3)N(C(=O)c3ccncc3)N2)ccc1O (stereo not given) | <5 mm | > 36 µM | <5 mm | 42% | <5 mm | >15 mm | >15 mm | >15 mm | >15 mm
10 | COc1ccc(C2C=C(c3ccc(O)c(C)c3)NN2C(=O)c2ccncc2)cc1OC (stereo not given) | <5 mm | > 14 µM | <5 mm | 24% | <5 mm | 5 mm | 10 mm | 10 mm | 10 mm
11 | Cc1cc(C2=CC(c3ccco3)N(C(=O)c3ccncc3)N2)ccc1O (stereo not given) | <5 mm | 7 µM | <5 mm | 86% | <5 mm | 5 mm | >15 mm | >15 mm | >15 mm
12 | Cc1cc(C2=CC(c3ccc(F)cc3)N(C(=O)c3ccncc3)N2)ccc1O (stereo not given) | <5 mm | > 68 µM | <5 mm | 8% | <5 mm | >15 mm | >15 mm | >15 mm | >15 mm
13 | CC1COc2c(N3CCN(C)CC3)c(F)cc3c(=O)c(C(=O)O)cn1c23 (stereo not given) [OFLOXACIN] | <5 mm |  | <5 mm |  | <5 mm | <5 mm | >15 mm | <5 mm | >15 mm
14 | COc1ccc(C2C=C(c3ccc(O)c(C)c3)NN2C(=O)c2ccncc2)cc1 (stereo not given) | <5 mm | > 125 µM | <5 mm | 24% | <5 mm | <5 mm | 10 mm | 5 mm | 5 mm
